Data taken from US20180370912A1, “COMPOUNDS AND METHODS FOR TREATING DISEASES MEDIATED BY PROTEIN DISULFIDE ISOMERASE” (Beth Israel Deaconess Medical Center, Inc., priority 2017, published 2018).

Tests used:
PDI [1] = biological target: T1, PDI (Homo sapiens, UniProt P07237); experiment: Insulin reductase (turbidimetric) assay; assay type: biochemical; settings: for selectivity for PDI among thiol isomerases: versus ERp5, ERp57, thioredoxin, concentrations 10-fold higher than IC50
T1 construct: FLAG; made in house; host or cells: Escherichia coli Origami B (DE3), pET-15b
Experimental: (§1) The thiol isomerase-catalyzed reduction of insulin was assayed by measuring the increase in turbidity as detected at an optical density (OD) of 650 nm using a Spectramax M3 (Molecular Devices, Sunnyvale, Calif.). The validation assay consisted of 175 nM of PDI in a solution containing 100 mM potassium phosphate (pH 7.4) containing 0.2 mM bovine insulin, 2 mM EDTA, and 0.3 mM DTT (all purchased from Sigma Aldrich, St. Louis, Mo.), inhibitors were used at the concentrations indicated. The reaction was performed at 25° C. for one hour and thirty minutes. For assays of thiol isomerase selectivity, 11 nM PDI, ERp57 or Thioredoxin, or 33 nM ERpS were assayed in similar buffer conditions as described above and inhibitors were used at the indicated concentration. The reaction was performed at 37° C. for forty-five minutes. For assays of isolated domains studies, 400 nM protein was used, except for a, a′ and ab, in which 800 nM protein was used. The assay was performed in similar buffer conditions as described above. Bepristat 2a and N-(2,4-Dimethoxyphenyl)-N-(1-oxo-2-propyn-1-yl)-2-(2-thienyl)glycyl-glycine ethyl ester (PACMA-31) were used at a final concentration of 15 μM in these studies.
Reversibility studies were performed by incubating 20 μM PDI with 6 μM of bepristat 2a or 300 μM of PACMA-31. After 30 minute equilibration; the PDI-inhibitor mixture was diluted 100 fold into the above mentioned assay buffer. The reductase activity of these mixtures were compared to PDI in the presence or absence of 6 μM bepristat 2a or 0.06 μM bepristat 2a or 300 μM PACMA-31 or 3 μM PACMA-31.

PDI [2] = biological target: T1, PDI; experiment: Di-eosin-GSSG disulfide reductase assay; assay type: biochemical
Experimental: The probe di-eosin glutathione disulfide, di-eosin-GSSG, was prepared as previously described in Raturi, A., Vacratsis, P. O., Seslija, D., Lee, L. & Mutus, B., Biochem J 391, 351-357 (2005). Reductase activity of purified thiol isomerases and PDI domains was monitored in a 96-well fluorescence plate format. PDI, AGHA-PDI, ERpS, ERp57, ERp72 and PDI domains were assayed at 50 nM in the presence or absence of the indicated small molecules, peptides or cathepsin G. The assay included 100 mM potassium phosphate (pH 7.4) containing 2 mM EDTA, 5 μM DTT and 150 nM of the di-eosin GSSG probe. The increase in fluorescence was determined for 20 minutes by excitation at 520 nm and emission at 550 nm in a Synergy Biotek 4. The reduction of 150 nM di-eosin-GSSG by 5 μM DTT in the presence or absence of mentioned small molecules, peptides or proteins served as a negative control.
Michaelis Menten analysis was assayed using PDI at 20 nM and small molecules, peptides or cathepsin G at concentrations causing maximal augmentation under similar buffer conditions as described above. 8-point response curves were generated using a range of different di-eosin-GSSG concentrations (50-5000 nM). Enzyme kinetics analysis was performed using Graphpad Prism 5.0.

Washed human platelets = experiment: Platelet aggregation, light transmission aggregometry; assay type: cell-based; settings: for inhibition of SFLLRN-induced platelet aggregation: 30 μM, 3 μM SFLLRN, FIG. 2d; for reversibility of inhibition of platelet aggregation after washing: platelets incubated with antagonist, washed, then stimulated with SFLLRN
Experimental: Platelet aggregation was performed as previously described in Jasuja, R. et al., J Clin Invest 122, 2104-2113 (2012). Briefly, platelet rich plasma (PRP) was obtained from healthy volunteers. Platelets were isolated by centrifugation at 2,000 g and resuspended in Hepes-Tyrode buffer (134 mM […], 2.9 mM KCl, 12 mM sodium bicarbonate, 20 mM HEPES, 1 mM magnesium chloride, 5 mM glucose [pH 7.3]). Washed human platelets (2.5×10^8 platelets/mL) were incubated with the indicated concentrations of bepristats and PACMA-31 at 37° C. for 20 minutes and then exposed to 3 μM PAR-1 activating peptide SFLLRN. Aggregation was measured using a Chrono-Log 680 Aggregation System.

[3] = biological target: T2, PDI domain fragments (a, a′, ab, abb′, b′xa′) (Homo sapiens, UniProt P07237); experiment: Insulin reductase assay of isolated PDI domains; assay type: biochemical; settings: FIG. 4a
T2 construct: a (residues 1-117), a′ (residues 342-462), ab (residues 1-218), abb′ (residues 1-331), or b′xa′ (residues 219-462); His; made in house; host or cells: Escherichia coli Origami B (DE3), pET-15b
Experimental: as §1

[4] = biological target: T3, PDI domain fragments (a, a′, ab, abb′, b′xa′) (Homo sapiens, UniProt P07237); experiment: Insulin reductase assay of isolated PDI domains; assay type: biochemical; settings: FIG. 4a; remark: listed apart in the source
T3 construct: a (residues 1-117), a′ (residues 342-462), ab (residues 1-218), abb′ (residues 1-331), or b′xa′ (residues 219-462); His; made in house; host or cells: Escherichia coli Origami B (DE3), pET-15b
T3 sequence (P07237 18-235): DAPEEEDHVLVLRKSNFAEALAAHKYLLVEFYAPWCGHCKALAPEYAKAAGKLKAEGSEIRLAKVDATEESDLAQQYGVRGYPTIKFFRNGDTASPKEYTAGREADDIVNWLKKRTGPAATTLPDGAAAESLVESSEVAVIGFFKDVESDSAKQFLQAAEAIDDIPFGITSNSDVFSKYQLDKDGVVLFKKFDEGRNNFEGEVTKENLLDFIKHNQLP
Experimental: as §1

[5] = biological target: T4, PDI domain fragments (a, a′, ab, abb′, b′xa′) (Homo sapiens, UniProt P07237); experiment: Insulin reductase assay of isolated PDI domains; assay type: biochemical; settings: FIG. 4a; remark: listed apart in the source
T4 construct: a (residues 1-117), a′ (residues 342-462), ab (residues 1-218), abb′ (residues 1-331), or b′xa′ (residues 219-462); His; made in house; host or cells: Escherichia coli Origami B (DE3), pET-15b
T4 sequence (P07237 18-348): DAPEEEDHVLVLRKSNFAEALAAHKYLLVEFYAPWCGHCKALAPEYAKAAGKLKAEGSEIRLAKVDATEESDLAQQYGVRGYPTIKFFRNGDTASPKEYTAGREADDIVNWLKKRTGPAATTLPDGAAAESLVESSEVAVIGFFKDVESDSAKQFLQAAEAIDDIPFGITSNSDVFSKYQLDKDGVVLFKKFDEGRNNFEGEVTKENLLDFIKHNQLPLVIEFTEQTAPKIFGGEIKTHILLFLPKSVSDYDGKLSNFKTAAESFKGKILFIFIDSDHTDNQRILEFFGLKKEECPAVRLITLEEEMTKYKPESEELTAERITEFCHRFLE
Experimental: as §1

PDI [6] = biological target: T1, PDI; experiment: ANS fluorescence; assay type: binding; settings: 100 μM inhibitor, 50 μM ANS, FIG. 4c
Experimental: The binding of 1-Anilinonaphthalene-8-Sulfonic Acid (ANS) to full length PDI and the different domains of PDI was assessed by incubating 5 μM of protein in the presence or absence of 100 μM of the indicated inhibitors in 175 μL of TBS at 37° C. for 1 hour. Subsequently, 50 μM of ANS was added and the mixture was incubated in the dark at 25° C. for 20 minutes. Fluorescence spectrum (Ex: 370 nm, Em: 400-700 nm) was measured in a 384-well plate. The experiment was performed in triplicate.

T1 sequence (P07237 18-508): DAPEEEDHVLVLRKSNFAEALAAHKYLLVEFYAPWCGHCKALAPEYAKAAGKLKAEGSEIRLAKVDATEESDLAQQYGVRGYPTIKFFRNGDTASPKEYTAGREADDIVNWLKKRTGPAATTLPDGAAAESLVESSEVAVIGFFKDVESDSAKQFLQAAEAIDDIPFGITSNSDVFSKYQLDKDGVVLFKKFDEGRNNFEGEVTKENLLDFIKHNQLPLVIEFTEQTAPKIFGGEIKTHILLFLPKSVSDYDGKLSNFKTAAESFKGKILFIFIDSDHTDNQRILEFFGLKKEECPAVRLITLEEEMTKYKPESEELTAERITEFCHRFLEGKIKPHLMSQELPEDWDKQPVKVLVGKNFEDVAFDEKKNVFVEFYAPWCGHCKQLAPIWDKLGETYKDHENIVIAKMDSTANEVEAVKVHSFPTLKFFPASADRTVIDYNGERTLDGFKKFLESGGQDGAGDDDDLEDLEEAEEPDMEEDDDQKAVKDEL

Compound | selectivity for PDI among thiol isomerases (PDI [1]) | cleavage of di-eosin-GSSG probe by PDI (reductase activity at catalytic cysteines) (PDI [2]) | inhibition of SFLLRN-induced platelet aggregation (Washed human platelets) | reversibility of inhibition of platelet aggregation after washing (Washed human platelets) | insulin reductase activity of b′xa′ domains [3] | insulin reductase activity of isolated a domain [3] | insulin reductase activity of isolated a′ domain [3] | insulin reductase activity of ab domain [4] | insulin reductase activity of abb′ domains [5] | increase in ANS fluorescence upon incubation with PDI (PDI [6]) | reversibility of PDI inhibition in the insulin reductase assay (PDI [1]; 100-fold dilution of 6 μM bepristat 2a or 300 μM PACMA-31, FIG. 9) | inhibitory activity in the insulin turbidimetric assay compared with quercetin-3-rutinoside, PACMA-31 and bacitracin (PDI [1]; FIG. 1e) | IC50 (PDI [1]; insulin reductase assay, FIG. 1b) [nM] | apparent kcat (PDI [2]; Michaelis-Menten analysis, incubation with compound, 1135 min^−1 without bepristats) [s⁻¹] | fluorescence of di-eosin-GSSG in the absence of PDI (PDI [2]; no PDI)
C#CC(=O)N(c1ccc(OC)cc1OC)C(C(=O)NCC(=O)OCC)c1cccs1 (stereo not shown) [PACMA-31, N-(2,4-Dimethoxyphenyl)-N-(1-oxo-2-propyn-1-yl)-2-(2-thienyl)glycyl-glycine ethyl ester, reference compound] | not entirely selective for PDI among thiol isomerases | blocked PDI-mediated cleavage of di-eosin-GSSG | inhibited platelet aggregation | irreversibly inhibited | inhibited reductase activity of all PDI fragments | inhibited reductase activity of all PDI fragments | inhibited reductase activity of all PDI fragments | inhibited reductase activity of all PDI fragments | inhibited reductase activity of all PDI fragments | failed to block ANS fluorescence |  |  |  |  | 
CCOC(=O)c1c(CNCCN(CC)CC)n(-c2ccccc2)c2cc(Br)c(O)cc12 [bepristat 2a] | selective among vascular thiol isomerases | enhanced cleavage of the di-eosin-GSSG probe by PDI | inhibited platelet aggregation | restored following washing | blocked activity | did not have activity | did not have activity | did not have activity | blocked activity | interfered with the increase in ANS fluorescence | readily reversed by dilution to a subinhibitory concentration | more potent inhibitory activity | ~1200 | 33.25 | did not affect
